As a reminder, the pKd is the Kd on a negative log10 scale, so that one unit is a factor of ten.

The structures appear in SMILES notation. pKd: −log10 of the molar value. Read-outs that look alike come from different tables or passages of the source.

This assay deals with EBOV VP40 (6xHis-VP40) (Ebola virus - Mayinga, Zaire, 1976, UniProt Q05128). As to the kind of experiment: biochemical. Format: binding.
Chain of EBOV VP40 (6xHis-VP40) (Q05128 whole entry, looked up): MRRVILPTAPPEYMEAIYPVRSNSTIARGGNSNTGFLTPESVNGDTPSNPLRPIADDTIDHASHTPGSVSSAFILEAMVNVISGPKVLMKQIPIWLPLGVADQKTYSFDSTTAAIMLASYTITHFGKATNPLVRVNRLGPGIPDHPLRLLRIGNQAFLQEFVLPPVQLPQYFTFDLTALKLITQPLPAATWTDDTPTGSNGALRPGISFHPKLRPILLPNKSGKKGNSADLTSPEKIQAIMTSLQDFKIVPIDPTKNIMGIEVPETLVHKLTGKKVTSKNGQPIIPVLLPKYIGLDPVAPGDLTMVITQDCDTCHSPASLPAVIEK

As for `CCCCCCCC/C=C\CCCCCCCC(=O)OC[C@H](COP(=O)(O)OC[C@H](N)C(=O)O)OC(=O)CCCCCCC/C=C\CCCCCCCC` [DOPS], where the note is “read-out: Kd (apparent)”, the pKd was 6.51. For the compound `CCCCCCCCCCCCCCCC(=O)OCC(COP(=O)(O)OC[C@H](N)C(=O)O)OC(=O)CCCCCCCCCCCCCCC` (stereo partly drawn) [DPPS], under “read-out: Kd (apparent)”, the pKd was 8.00. On to `CCCCCCCC/C=C\CCCCCCCC(=O)O[C@H](COC(=O)CCCCCCCCCCCCCCC)COP(=O)(O)OC[C@H](N)C(=O)O` [POPS], for which the pKd was 6.73.

Source of the values: PMC11565396 (Journal of Lipid Research, 2024).
